Patent publication US12060329B1, “6′-(2-bromophenyl)-2′-ethoxy-3,4′-bipyridine-3′-carbonitrile as an antioxidant compound” (KING FAISAL UNIVERSITY, priority 2023, dated 2024)

Experiment: DPPH radical scavenging antioxidant test
Assay type: biochemical
Settings: 517 nm; for Inhibition (radical scavenging inhibition): compound 3 μM in ethanol, 0.2 mL DPPH (0.75 mM), 30 minutes in the dark
Description: The antioxidant activity of 6′-(2-bromophenyl)-2′-ethoxy-3,4′-bipyridine-3′-carbonitrile was investigated by 2,2-diphenyl-1-picrylhydrazyl (DPPH) in vitro tests that employ vitamin C as the positive control.
The antioxidant properties of the 6′-(2-bromophenyl)-2′-ethoxy-3,4′-bipyridine-3′-carbonitrile compound were studied by adding 0.2 mL DPPH (0.75 mM)) to 6′-(2-bromophenyl)-2′-ethoxy-3,4′-bipyridine-3′-carbonitrile (3 μM) (4) in ethanol. After 30 minutes of incubation in the dark, the absorbance was read against a blank at 517 nm. Ascorbic acid (vitamin C) was used as standard antioxidants (positive control). A blank sample was prepared by 0.2 mL of DPPH in 3 mL ethanol. A negative control sample was run using ethanol instead of the sample. The radical scavenging inhibition was calculated using the following equation: […]
The antioxidant activity for the synthesized compound is listed in Table 1, using Vitamin C as a reference.

SMILES | Inhibition (radical scavenging inhibition) [%] | antioxidant potential to vanish the DPPH radical colors (in words) (DPPH in vitro test, vitamin C as positive control)
O=C1O[C@H]([C@@H](O)CO)C(O)=C1O [vit c, Ascorbic acid, reference compound] | 74 | 
CCOc1nc(-c2ccccc2Br)cc(-c2cccnc2)c1C#N [Product 4, 6′-(2-bromophenyl)-2′-ethoxy-3,4′-bipyridine-3′-carbonitrile] | 50 | high potential as an antioxidant compared to vitamin C
